The structures appear in SMILES notation.

Type in all cases: cell-based
One assay addresses T1, BCR-KIT BaF3 cells (Homo sapiens, UniProt P10721).
T1 construct: fused on or other part: P11274 (Breakpoint cluster region protein)
The assay can be described thus: BaF3 BCR-KIT cell proliferation assay (ATPlite). The conditions noted are these: read-out: Inhibition of Cell Proliferation IC50, BCR/BaF3 Kit. The method, boiled down:
(§1)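 BaF3 cells expressing BCR fusions were plated at 10,000 cells/well without IL-3, and MV-4-11 cells at 25,000 cells/well. Cells were treated the next day with an 8-point 1:3 dilution series (top 10 μM final) and incubated 3 days at 37 °C. ATPlite luminescence gave cell number, from which IC50 was fitted.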

Another assay has as its target T2, BCR-NTRK1 BaF3 cells (Homo sapiens, UniProt P04629).
T2 construct: fused on or other part: P11274 (Breakpoint cluster region protein)
In words: BaF3 BCR-NTRK1 cell proliferation assay (ATPlite). To be noted: read-out: Inhibition of Cell Proliferation IC50, BCR/BaF3 TrkA. The method, boiled down:
as §1

For a further assay, the target named is T3, BCR-NTRK2 BaF3 cells (Homo sapiens, UniProt Q16620).
T3 construct: fused on or other part: P11274 (Breakpoint cluster region protein)
The assay can be described thus: BaF3 BCR-NTRK2 cell proliferation assay (ATPlite). The conditions noted are these: read-out: Inhibition of Cell Proliferation IC50, BCR/BaF3 TrkB. The method, boiled down:
as §1
In general terms: In ATP-based viability assays light output follows the ATP content of the culture.

T3 sequence (Q16620 538-807): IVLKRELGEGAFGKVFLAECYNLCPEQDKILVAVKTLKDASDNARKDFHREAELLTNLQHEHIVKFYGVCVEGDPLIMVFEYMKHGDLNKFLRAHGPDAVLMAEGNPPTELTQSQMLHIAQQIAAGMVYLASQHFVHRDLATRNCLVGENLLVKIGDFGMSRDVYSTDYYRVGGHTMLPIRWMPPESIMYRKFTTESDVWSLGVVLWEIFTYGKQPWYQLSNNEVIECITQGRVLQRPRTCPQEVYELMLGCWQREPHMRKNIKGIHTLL
T1 sequence (P10721 589-937): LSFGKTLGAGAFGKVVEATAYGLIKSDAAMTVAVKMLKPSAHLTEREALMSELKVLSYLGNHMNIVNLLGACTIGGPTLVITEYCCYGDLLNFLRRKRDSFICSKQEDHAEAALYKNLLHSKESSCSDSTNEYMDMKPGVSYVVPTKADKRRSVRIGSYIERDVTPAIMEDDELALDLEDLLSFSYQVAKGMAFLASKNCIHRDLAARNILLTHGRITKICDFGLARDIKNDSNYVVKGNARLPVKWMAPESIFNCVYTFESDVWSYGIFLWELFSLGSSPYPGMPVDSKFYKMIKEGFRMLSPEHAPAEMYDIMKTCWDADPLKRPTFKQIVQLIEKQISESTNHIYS
T2 sequence (P04629 510-781): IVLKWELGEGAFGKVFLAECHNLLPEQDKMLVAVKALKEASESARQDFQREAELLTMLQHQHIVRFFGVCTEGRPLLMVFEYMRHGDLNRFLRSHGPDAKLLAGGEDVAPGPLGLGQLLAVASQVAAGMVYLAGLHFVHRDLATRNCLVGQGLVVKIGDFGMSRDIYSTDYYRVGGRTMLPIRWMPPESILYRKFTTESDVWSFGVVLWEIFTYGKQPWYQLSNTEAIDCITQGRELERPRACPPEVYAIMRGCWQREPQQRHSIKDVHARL

`CCOc1ccc(Nc2ccc(C(=O)c3c[nH]c4ncnc(C)c34)c(F)n2)cn1` [Compound P-4032, [6-(6-Ethoxy-pyridin-3-ylamino)-2-fluoro-pyridin-3-yl]-(4-methyl-7H-pyrrolo[2,3-d]pyrimidin-5-yl)-methanone]: the IC50 at BCR-KIT BaF3 cells was < 1000 nM; at BCR-NTRK1 BaF3 cells, < 100 nM; at BCR-NTRK2 BaF3 cells it was < 100 nM.

For the compound `CCn1cc(Nc2ccc(Cc3c[nH]c4ncnc(C5CC5)c34)c(F)n2)cn1` [Compound P-4036, [5-(4-Cyclopropyl-7H-pyrrolo[2,3-d]pyrimidin-5-ylmethyl)-6-fluoro-pyridin-2-yl]-(1-ethyl-1H-pyrazol-4-yl)-amine], the IC50 is < 1000 nM on BCR-KIT BaF3 cells, < 1000 nM on BCR-NTRK1 BaF3 cells and < 100 nM on BCR-NTRK2 BaF3 cells.

`Cc1cncc(Nc2ccc(Cc3c[nH]c4ncnc(C5CC5)c34)c(F)n2)c1` [Compound P-4038, [5-(4-Cyclopropyl-7H-pyrrolo[2,3-d]pyrimidin-5-ylmethyl)-6-fluoro-pyridin-2-yl]-(5-methyl-pyridin-3-yl)-amine]: the IC50 on BCR-KIT BaF3 cells, on BCR-NTRK1 BaF3 cells and on BCR-NTRK2 BaF3 cells was < 1000 nM each time.

As to `Cc1cncc(Nc2ccc(C(=O)c3c[nH]c4ncnc(C5CC5)c34)c(F)n2)c1` [Compound P-4039, (4-Cyclopropyl-7H-pyrrolo[2,3-d]pyrimidin-5-yl)-[2-fluoro-6-(5-methyl-pyridin-3-ylamino)-pyridin-3-yl]-methanone], the values for the IC50 at BCR-KIT BaF3 cells, on BCR-NTRK1 BaF3 cells and at BCR-NTRK2 BaF3 cells were < 1000 nM, < 100 nM and < 100 nM, respectively.

With `Fc1nc(NC2CCC(F)(F)CC2)ccc1Cc1c[nH]c2ncnc(NCC(F)(F)F)c12` [Compound P-4128, 5-[[6-[(4,4-difluorocyclohexyl)amino]-2-fluoro-3-pyridyl]methyl]-N-(2,2,2-trifluoroethyl)-7H-pyrrolo[2,3-d]pyrimidin-4-amine], the results for the IC50 on BCR-KIT BaF3 cells, on BCR-NTRK1 BaF3 cells and on BCR-NTRK2 BaF3 cells were < 1000 nM, < 1000 nM and < 100 nM, respectively.

`Fc1nc(NC2CCC(F)(F)CC2)ccc1Cc1c[nH]c2ncnc(NC3CC3)c12` [Compound P-4129, N-cyclopropyl-5-[[6-[(4,4-difluorocyclohexyl)amino]-2-fluoro-3-pyridyl]methyl]-7H-pyrrolo[2,3-d]pyrimidin-4-amine]: the figures for the IC50 at BCR-KIT BaF3 cells, at BCR-NTRK1 BaF3 cells and at BCR-NTRK2 BaF3 cells were < 1000 nM, < 1000 nM and < 100 nM, respectively.

Take `Fc1nc(Nc2ccc(C3CC3)nc2)ccc1Cc1c[nH]c2ncnc(NCC(F)(F)F)c12` [Compound P-4130, 5-[[6-[(6-cyclopropyl-3-pyridyl)amino]-2-fluoro-3-pyridyl]methyl]-N-(2,2,2-trifluoroethyl)-7H-pyrrolo[2,3-d]pyrimidin-4-amine]: the figures for the IC50 on BCR-KIT BaF3 cells, on BCR-NTRK1 BaF3 cells and at BCR-NTRK2 BaF3 cells were > 1000 nM, < 100 nM and < 10 nM, respectively.

(Values after patent US8901118B2, “Compounds and methods for kinase modulation, and indications therefor” (Plexxikon Inc., priority 2010, dated 2014).)
